The test system of one test is MCF7. Kind of test: Antiproliferative activity against human MCF7 cells assessed as inhibition of cell growth. The class given is functional, cell-based.
Test [1] deals with MDA-MB-231. Kind of test: Induction of apoptosis in human MDA-MB-231 cells assessed as late apoptotic cells at 12.5 uM incubated for 48 hrs by AnnexinV and 7AAD staining based flow cytometric analysis. It counts as functional, cell-based. Background: Flow cytometry measures light scatter and fluorescence of single cells or particles in a stream.
The test system of test [2] is MDA-MB-231. Kind of test: Induction of cell cycle arrest in human MDA-MB-231 cells assessed as accumulation in G2/M phase at 12.5 uM incubated for 48 hrs by PI staining based flow cytometric analysis (reference value: 19.7%). The class given is functional.
For test [3], the system named is MDA-MB-231. Put plainly: Antiproliferative activity against human MDA-MB-231 cells incubated for 48 hrs by MTT assay. The class given is functional, cell-based. Conditions: MDA-MB-231, 48 h. Background: Formazan colour is commonly taken as a measure of viable cells.
Test [4] has as its system MDA-MB-231. Kind of test: Induction of cell cycle arrest in human MDA-MB-231 cells assessed as accumulation in G0/G1 phase at 12.5 uM incubated for 48 hrs by PI staining based flow cytometric analysis (reference value: 51.75%). The class given is functional.
In test [5] the test system is MDA-MB-231. Kind of test: Antiproliferative activity against human MDA-MB-231 cells assessed as inhibition of cell growth at >25 uM incubated for 24 hrs by MTT assay relative to control. It counts as functional. The following applies: dose microM >25.
Another test relates to 5637. Put plainly: Antiproliferative activity against human 5637 cells assessed as inhibition of cell growth incubated for 24 hrs by MTT assay. Conditions: Homo sapiens, 5637, 24 h. It counts as functional, cell-based.
Test [6] deals with MDA-MB-231. Kind of test: Induction of cell cycle arrest in human MDA-MB-231 cells assessed as accumulation in S phase at 12.5 uM incubated for 48 hrs by PI staining based flow cytometric analysis (reference value: 19.35%). The class given is functional.
Test [7] concerns MDA-MB-231. Kind of test: Induction of apoptosis in human MDA-MB-231 cells assessed as early apoptotic cells at 12.5 uM incubated for 48 hrs by AnnexinV and 7AAD staining based flow cytometric analysis. The class given is functional, cell-based.
Test [8] has as its system MDA-MB-231. Put plainly: Antiproliferative activity against human MDA-MB-231 cells at >12.5 uM incubated for 48 hrs by MTT assay. It counts as functional, cell-based. Conditions: dose microM >12.5, time 48.0 hrs.
Test [9] has as its system MDA-MB-231. Put plainly: Antiproliferative activity against human MDA-MB-231 cells incubated for 24 hrs by MTT assay. The following applies: MDA-MB-231, 24 h. The class given is functional, cell-based.
Test [10] has as its system MDA-MB-231. Put plainly: Antiproliferative activity against human MDA-MB-231 cells at 6.25 to 100 uM incubated for 24 to 48 hrs by MTT assay. It counts as functional, cell-based. Conditions: dose microM 6.25-100, time hrs 24-48.

pIC50: −log10 of the molar value. Active and inactive are the calls of the source. The rule behind the calls is not given here.

Take `CNCCC(Oc1ccc(C(F)(F)F)cc1)c1ccccc1` (configuration not stated) [FLUOXETINE]: the pIC50 (as a rule, the negative decadic logarithm of the IC50, by convention in mol/L) with MCF7 is 8.00.

For `Cc1cn([C@H]2C[C@H](n3cc(CCCO)nn3)[C@@H](C[Te]c3ccccc3)O2)c(=O)[nH]c1=O`, the outcome in the test on MDA-MB-231 [1] and in the test on MDA-MB-231 [7] was inactive. Besides, the Activity with MDA-MB-231 [2] worked out at 19.95%; in the test with MDA-MB-231 [4] it was 44.9%; in the test with MDA-MB-231 [6], 28.2%. Further, the pIC50 in the test on MDA-MB-231 [3] is 5.02; in the test with 5637, 5.70; in the test on MDA-MB-231 [9] it was 4.67. Also, the “inhibition (INH)” value with MDA-MB-231 [5] came to 50%. The result in the test on MDA-MB-231 [8] was Active.

As for `Cc1cn([C@H]2C[C@H](N=[N+]=[N-])[C@@H](CO)O2)c(=O)[nH]c1=O`, the outcome with MDA-MB-231 [10] was inactive.

Regarding `Cc1cn([C@H]2C[C@H](n3cc(CO)nn3)[C@@H](C[Te]c3ccccc3)O2)c(=O)[nH]c1=O`, the outcome in the test on MDA-MB-231 [1] and in the test with MDA-MB-231 [7] was inactive. Moreover, the Activity in the test with MDA-MB-231 [2] is 16.9%; in the test with MDA-MB-231 [4], 40.55%; in the test on MDA-MB-231 [6] it was 27.3%. For the same compound, the pIC50 in the test on MDA-MB-231 [3] is 4.93; in the test with 5637, 5.09; with MDA-MB-231 [9], 4.60. Besides, the “inhibition (INH)” value with MDA-MB-231 [5] is 50%. In addition, in the test on MDA-MB-231 [8], the result was Active.

The record behind these values is ChEMBL document CHEMBL4665723, “Evaluation of the effect of synthetic compounds derived from azidothymidine on MDA-MB-231 type breast cancer cells” (Bioorg Med Chem Lett, 2020).
